Values joined by “and” are separate entries in the source; they are usually repeats but may differ in a detail not shown here. Identical values can stand only once. Like-named read-outs stand apart in the source and are kept apart here.
Assays:
human amylin (hIAPP) [1] = target: T1, human amylin (hIAPP) (Homo sapiens, UniProt P10997); experiment: Fluorescence quenching of amylin: Stern-Volmer, binding and thermodynamic analysis; details: for quenching of amylin's intrinsic fluorescence: compound 0 to 20 μM, excitation 275 nm; for Kd: read-out: K b (binding constant) (converted); for ΔH / ΔS: Van't Hoff plot, 25/30/37 °C
T1 construct: purchased Bachem USA
T1 sequence (P10997 34-70 limits assumed): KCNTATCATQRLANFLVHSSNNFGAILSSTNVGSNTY
Method: The fluorescence emission scans (wavelengths 290 to 500 nm) of 10-fold diluted amylin samples were acquired with a PerkinElmer model LS 55. The excitation wavelength was set at 275 nm to observe the fluorescence of the tyrosine residue exclusively. The integrated spectrum from 290 to 450 nm was used to obtain the relative fluorescence values of Tyr. Fluorescence measurements were performed in 1 cm light-path quartz cuvettes, with both excitation and emission bandwidths set to 5 nm. Sample fluorescence was determined by subtracting the fluorescence of the buffer. Each experiment was performed in duplicate. ,
Quenching titrations with acrylamide were carried out by adding varying amounts of a quencher stock solution (5 M) to the protein solution (∼15 μM diluted 10-fold). , The excitation wavelength was set at 275 nm, and the fluorescence emission spectra were scanned from 275 to 500 nm using a PerkinElmer model LS 55. The emission and excitation slits were set to 5 and 10 nm, respectively, and a 1 cm cuvette was used for all experiments. According to the Stern–Volmer equation, the integration area between 290 and 450 nm was used for data analysis. , Before analyzing the quenching data, the fluorescence emission spectra were corrected for volume changes, scattering effects, and the inner filter effect due to acrylamide absorption. , Each experiment was performed in duplicate. The quenching mechanism analysis by the Stern–Volmer equation was calculated according to eq . F 0 is the fluorescence intensity without the quencher, and F is the intensity with a quencher. K sv is the Stern–Volmer quenching constant, while Q is the quencher concentration. K q is the biomolecular quenching constant, and τ0 is the average lifetime of the fluorophore. 1 F0/F=1+Ksv[Q]=1+Kqτ0[Q]
The parameter n obtained from the fit is treated as an apparent slope/exponent (heterogeneous populations and partial fluorophore accessibility) and is not interpreted as the literal number of binding sites. 2 log(F0−F)/F=logKb+nlog[Q]
The Van’t Hoff equation was used to calculate the various thermodynamic interaction parameters. Equation was implemented to calculate the free energy change. 3 lnKb=−ΔH^°/RT+ΔS^°/R 4 ΔG^°=ΔH^°−TΔS^°=−RTlnKb

human amylin (hIAPP) [2] = target: T1, human amylin (hIAPP); experiment: Thioflavin T (ThT) fluorescence assay of amylin aggregation; assay type: biochemical; details: for ThT inhibition % (mean ± SEM): compound 10 μM, amylin 15 μM, 36 h incubation, 3 trials; for inhibition at 10 µM: read-out: ThT inhibition % (mean ± SEM), compound 10 μM, amylin 15 μM, 36 h incubation, 3 trials
Method: A stock solution of amylin (1 mM) (purchased from Bachem USA), peptide sequence: […] amide (with disulfide bond between Cys2 and Cys7), was prepared in 100% hexafluoroisopropyl alcohol (HFIP) (purchased from Sigma-Aldrich) and stored at −20 °C. , Aliquots of amylin peptide were filtered through a 0.22 μm filter from the stock solution and freeze-dried. For kinetic experiments, 15 μM of amylin was prepared in 50 mM Tris-HCl buffer (pH 7.4), as investigated in previous studies by Chaari et al., , Samples of amylin were prepared in the presence or absence of inhibitors. Each compound was dissolved in DMSO and further diluted with the buffer used to solubilize the amylin. The final mixture contained 15 μM amylin, 10 μM of the test compound, 2% DMSO or 15 μM amylin, and 2% DMSO without the compound (negative control). Also 15 μM amylin, 10 μM of oleuropein aglycone and 2% DMSO was used as a positive control. The prepared solutions were incubated under physiological conditions (pH 7.4 and 37 °C) for amylin aggregation. Samples were incubated for 36 h to test for amylin aggregation, and measurements were conducted at different time points.
Amylin aggregation was monitored by characteristic changes in Thioflavin T (ThT) fluorescence intensity. A ThT stock solution (15 μM) was prepared in deionized water at pH 7.4. The amylin samples were mixed with the ThT solution and allowed to incubate. ThT fluorescence was measured using the PerkinElmer model LS 55 fluorescence spectrophotometer (PerkinElmer, USA), with an excitation wavelength of 440 nm and an emission wavelength of 480 nm. ,− The emission and excitation slits were set to 5 nm, and a 1 cm cuvette was used for all experiments. Nonspecific background fluorescence was subtracted from the samples using appropriate blanks in the absence of proteins. Each experiment was performed in triplicate.

human amylin (hIAPP) [3] = target: T1, human amylin (hIAPP); experiment: Kinetic analysis of amylin aggregation (ThT, two-step autocatalytic aggregation model); assay type: biochemical; details: mean ± S.D.; for t 0 (time point when the aggregation starts): 10% of highest ThT fluorescence; for t 1/2 (aggregation halftime): 50% of highest ThT fluorescence; for t 1 (aggregation endpoint): 90% of highest ThT fluorescence; for k / k e (elongation constant) / k n (nucleation constant) / ρ (ratio of kn to k): ThT data, autocatalytic aggregation model
Method: Kinetic analysis was performed according to the model of autocatalytic aggregation. According to Sabaté et al., aggregation is a two-step process, comprising nucleation (described by the k n constant) and fibrillation phases (represented by the k e constant). Two constants (k n and k e) are calculated using the eq : 5 f=ρ{e^[(1+ρ)kt]−1}/{1+ρe^[(1+ρ)kt]} where k = k e a (where a represents the initial concentration of the aggregating peptide), f stands for a fraction of the fibrillar form in the system, and ρ denotes the dimensionless ratio of k n to k. The parameters k and ρ were calculated first, then k n and k e.
Data were normalized as a fraction of the highest fluorescence from the three trials and fitted into the model of autocatalytic aggregation. The same procedure was repeated for the remaining trials. The second calculation aimed to find the time parameters of the aggregation process: t 0 (time point when the aggregation starts), t 1/2 (aggregation halftime), and t 1 (aggregation endpoint). t 0, t 1/2, and t 1 were calculated as 10%, 50%, and 90% of the highest fluorescence measurements from the three trials, respectively. All calculations were performed using GraphPad Prism 9.5.1, Statistica 13.3.721.1, and Microsoft Excel 2304.

Aβ = system: Aβ; parameters: method as in Panek et al.; details: based on ThT assay results; ref Panek et al.; read-out: IC50 of Aβ aggregation inhibition; cited from earlier work

Row | Structure (SMILES) | K q (quenching constant) (human amylin (hIAPP) [1]; 25 °C) | K sv (Stern–Volmer quenching constant) (human amylin (hIAPP) [1]; 25 °C) | n (apparent slope/exponent, binding sites) (human amylin (hIAPP) [1]; 25 °C) | ΔG (human amylin (hIAPP) [1]; 25 °C) | quenching of amylin's intrinsic fluorescence (human amylin (hIAPP) [1]; 25 °C) | Kd (human amylin (hIAPP) [1]; 25 °C) [µM] | K q (quenching constant) (human amylin (hIAPP) [1]; 30 °C) | K sv (Stern–Volmer quenching constant) (human amylin (hIAPP) [1]; 30 °C) | n (apparent slope/exponent, binding sites) (human amylin (hIAPP) [1]; 30 °C) | ΔG (human amylin (hIAPP) [1]; 30 °C) | Kd (human amylin (hIAPP) [1]; 30 °C) [µM] | K q (quenching constant) (human amylin (hIAPP) [1]; 37 °C) | K sv (Stern–Volmer quenching constant) (human amylin (hIAPP) [1]; 37 °C) | n (apparent slope/exponent, binding sites) (human amylin (hIAPP) [1]; 37 °C) | ΔG (human amylin (hIAPP) [1]; 37 °C) | Kd (human amylin (hIAPP) [1]; 37 °C) [µM] | ΔH (human amylin (hIAPP) [1]) [kcal/mol] | ΔS (human amylin (hIAPP) [1]) [J/mol K] | ThT inhibition % (mean ± SEM) (human amylin (hIAPP) [2]) [%] | inhibition at 10 µM (human amylin (hIAPP) [2]) [%] | further results
1 | CC(C)(C)c1cccc(CNCC(O)CNCCC(c2ccccc2)c2ccccc2)c1 (centres unmarked) [Compound 18] | 5.80 ± 0.17 10^12 M^–1 s^–1 | 3.43 ± 0.21 10^4 M^–1 | 0.60 ± 0.12 | –5.99 ± 0.10 kJ/mol | substantial quenching | 2500 | 4.57 ± 0.11 10^12 M^–1 s^–1 | 2.70 ± 0.39 10^4 M^–1 | 0.75 ± 0.10 | –6.99 ± 0.20 kJ/mol | 769 | 3.90 ± 0.12 10^12 M^–1 s^–1 | 2.30 ± 0.18 10^4 M^–1 | 0.92 ± 0.10 | –8.38 ± 0.30 kJ/mol | 286 | 12.74 ± 1.17 | 199.00 ±14.13 | 91.5 ± 0.4 | > 88 | t 0 (time point when the aggregation starts) (human amylin (hIAPP) [3]): 9.31 ± 0.72 h; t 1/2 (aggregation halftime) (human amylin (hIAPP) [3]): 19.02 ± 0.57 h; t 1 (aggregation endpoint) (human amylin (hIAPP) [3]): 29.29 ± 0.36 h; k (human amylin (hIAPP) [3]): 0.2087 ± 0.0084 h^–1; k e (elongation constant) (human amylin (hIAPP) [3]): 13913 M^–1h^–1 and 13913 ± 560 M^–1h^–1; k n (nucleation constant) (human amylin (hIAPP) [3]): 0.004 h^–1 and 0.0039 ± 0.0009 h^–1; ρ (ratio of kn to k) (human amylin (hIAPP) [3]): 0.0186 ± 0.0051; IC50 (Aβ): 3.09 µM
2 | CC(C)(C)c1cccc(CNCC(O)CCNCCC(c2ccccc2)c2ccccc2)c1 (centres unmarked) [Compound 22] | 5.67 ± 0.16 10^12 M^–1 s^–1 | 3.35 ± 0.18 10^4 M^–1 | 0.80 ± 0.15 | –5.05 ± 0.27 kJ/mol | substantial quenching | 1000 | 3.89 ± 0.11 10^12 M^–1 s^–1 | 2.30 ± 0.27 10^4 M^–1 | 1.06 ± 0.10 | –7.19 ± 0.17 kJ/mol | 20.9 | 2.88 ± 0.12 10^12 M^–1 s^–1 | 1.70 ± 0.13 10^4 M^–1 | 1.15 ± 0.15 | –10.23 ± 0.41 kJ/mol | 10.7 | 29.637 ± 1.08 | 433.00 ± 9.13 | 89.3 ± 0.3 | > 88 | t 0 (time point when the aggregation starts) (human amylin (hIAPP) [3]): 4.36 ± 0.16 h; t 1/2 (aggregation halftime) (human amylin (hIAPP) [3]): 11.87 ± 1.02 h; t 1 (aggregation endpoint) (human amylin (hIAPP) [3]): 20.69 ± 2.27 h; k (human amylin (hIAPP) [3]): 0.2326 ± 0.0366 h^–1; k e (elongation constant) (human amylin (hIAPP) [3]): 15505 M^–1h^–1 and 15505 ± 2437 M^–1h^–1; k n (nucleation constant) (human amylin (hIAPP) [3]): 0.014 h^–1 and 0.0142 ± 0.0006 h^–1; ρ (ratio of kn to k) (human amylin (hIAPP) [3]): 0.0624 ± 0.0126; IC50 (Aβ): 1.22 µM

Reference: PMC12612973, “Inhibition of Human Amylin Aggregation: In Silico and In Vitro Studies” (ACS Omega, 2025)
